Source: paper PMC3368874, “Characterization of 4-HNE Modified L-FABP Reveals Alterations in Structural and Functional Dynamics” (PLoS ONE, 2012)
Read-outs that look alike come from different tables or passages of the source. Each block holds one compound with its values, some of them ahead of it.

Columns and labels:
[1] = target: T1, apo rL-FABP (Mus musculus, UniProt P12710); test: Thermal denaturation of apo rL-FABP (UV-monitored)
T1 construct: made in house; host or cells: Escherichia coli BL21 (DE3)
T1 sequence (P12710 1-127): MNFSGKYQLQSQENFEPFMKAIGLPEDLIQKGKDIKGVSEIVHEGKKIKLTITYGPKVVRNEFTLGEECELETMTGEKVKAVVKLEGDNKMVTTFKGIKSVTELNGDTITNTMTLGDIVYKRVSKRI
Description: (§1) The stability of rL-FABP was assessed using UV-monitored heating experiments. Native (apo and holo) and 4-HNE modified (apo and holo) rL-FABP (0.8 mg/ml) was thermally denatured in 50 mM tricine buffer (pH 8.0) at 40–95°C over 1.5 hours in a 0.7 mL quartz cell (Starna Cells). Absorbance of rL-FABP was monitored at 260–360 nm using a Chirascan Plus Spectrometer (Applied Photophysics, Leatherhead, Surrey, UK) once per minute. Temperature was continuously ramped 1°C/min. Light scattering was recorded continuously at 360 nm to monitor protein aggregation. Temperature of aggregation (Tm) was determined using Global Analysis T-Ramp software provided by Applied Photophysics (Pro-Data Global3 v1.1.0) following baseline correction.

[2] = target: T2, holo rL-FABP (Mus musculus, UniProt P12710); test: Thermal denaturation of holo rL-FABP (UV-monitored); conditions: semi-quantitative
T2 construct: made in house; host or cells: Escherichia coli BL21 (DE3)
T2 sequence (P12710 1-127): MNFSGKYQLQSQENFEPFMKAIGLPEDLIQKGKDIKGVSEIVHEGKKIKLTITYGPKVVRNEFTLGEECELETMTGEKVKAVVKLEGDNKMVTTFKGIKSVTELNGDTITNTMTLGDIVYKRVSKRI
Description: as §1

[3] = set-up: method as in PMID 12437335; conditions: cited from earlier work
[4] = target: T3, 4-HNE modified rL-FABP (Mus musculus, UniProt P12710); test: ANS equilibrium binding to 4-HNE treated rL-FABP (fluorescence)
T3 construct: made in house; host or cells: Escherichia coli BL21 (DE3)
T3 sequence (P12710 1-127): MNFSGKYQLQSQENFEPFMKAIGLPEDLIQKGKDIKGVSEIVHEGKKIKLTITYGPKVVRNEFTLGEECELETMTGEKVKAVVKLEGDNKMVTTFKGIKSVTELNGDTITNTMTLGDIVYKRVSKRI
Description: (§2) Steady-state fluorescence spectra were measured using a HORIBA JOBIN YVON FluoroMax-3 Fluorometer (Edison, NJ USA). The binding of ANS to rL-FABP was monitored following excitation at 370 nm and emission at 475 nm, with slits set at 2 and 4 nm, respectively. Measurements were taken at ambient temperature in a 0.7 mL fluorescence cuvette (Starna Cells, Atascadero, CA). Equilibrium binding studies were conducted with saturating concentrations of ANS according to previous studies, [30] with slight modifications. Briefly, ANS (0–45 µM) was titrated into 1 µM rL-FABP in 50 mM tricine buffer (pH 8.0), mixed for 30 seconds, and emission spectra were recorded. rL-FABP was either treated with 4-HNE (0.1X [5.93 µM], 1X [53.93 µM], or 5X [245.09 µM]) or the arginine blocker phenylglyoxal (PG) (10 mM), or a combination of the two (PG +5X). Following treatments, protein was dialyzed overnight in tricine buffer, pH 8.0. Preparation of ANS was conducted according to Denicola et al., where it was solubilized in absolute ethanol and quantified at Abs372 with an extinction coefficient of 8,000 cm^−1·M^−1 prior to use.
(§3) Statistical analysis and generation of graphs was performed using GraphPad Prism (v 4.02; GraphPad Software, San Diego, CA) and SigmaPlot (v10.0; Systat Software, San Jose, CA). Statistical differences between control and treated samples were assessed using a paired Student’s t test or a one-way ANOVA with Tukey’s post-test. Differences were considered significant if p<0.05. Nonlinear regression (curve fit) analysis was performed using a two-site binding hyperbola (eq 1), where ΔF is the enhancement in fluorescence intensity upon the binding of ANS to L-FABP to a point of saturation (Bmax). [drawing 1] (1)

[5] = target: T4, PG treated rL-FABP (Mus musculus, UniProt P12710); test: ANS equilibrium binding to phenylglyoxal (PG) treated rL-FABP
T4 construct: made in house; host or cells: Escherichia coli BL21 (DE3)
T4 sequence (P12710 1-127): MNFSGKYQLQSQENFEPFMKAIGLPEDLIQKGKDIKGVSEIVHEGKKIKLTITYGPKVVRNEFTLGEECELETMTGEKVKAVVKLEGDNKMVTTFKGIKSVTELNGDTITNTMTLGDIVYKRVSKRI
Description: as §2, §3

[6] = target: T5, rL-FABP (Mus musculus, UniProt P12710); test: ANS equilibrium binding to native rL-FABP (fluorescence)
T5 construct: made in house; host or cells: Escherichia coli BL21 (DE3)
T5 sequence (P12710 1-127): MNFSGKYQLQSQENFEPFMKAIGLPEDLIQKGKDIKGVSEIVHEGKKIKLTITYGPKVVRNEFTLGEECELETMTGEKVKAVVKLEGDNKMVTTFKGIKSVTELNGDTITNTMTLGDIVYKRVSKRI
Description: as §2, §3

[7] = target: T6, PG + 5X 4-HNE treated rL-FABP (Mus musculus, UniProt P12710); test: ANS equilibrium binding to PG + 5X 4-HNE treated rL-FABP
T6 construct: made in house; host or cells: Escherichia coli BL21 (DE3)
T6 sequence (P12710 1-127): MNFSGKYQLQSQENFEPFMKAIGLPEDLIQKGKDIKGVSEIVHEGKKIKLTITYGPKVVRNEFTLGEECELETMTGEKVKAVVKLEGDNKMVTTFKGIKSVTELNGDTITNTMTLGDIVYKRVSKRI
Description: as §2, §3

[8] = target: T7, 4-HNE adducted rL-FABP (Mus musculus, UniProt P12710); test: Displacement of ANS by fatty acids, 1X 4-HNE treated rL-FABP; format: binding; conditions: for bi (counts inhibitable) / Ki: 1X 4-HNE (53.95 µM) treated rL-FABP; for Ki: read-out: ki (inhibition constant); for br (counts residual) / n (hill coefficient): 1X 4-HNE treated rL-FABP; for reduction of maximal binding to the FA by 4-HNE: 1X 4-HNE treated versus WT rL-FABP
T7 construct: made in house; host or cells: Escherichia coli BL21 (DE3)
T7 sequence (P12710 1-127): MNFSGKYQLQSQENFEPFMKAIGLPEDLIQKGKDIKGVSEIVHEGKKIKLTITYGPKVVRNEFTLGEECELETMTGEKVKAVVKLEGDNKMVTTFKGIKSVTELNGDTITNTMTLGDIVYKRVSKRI
Description: (§4) Lipid displacement assays were adapted from previous publications, [30]. Briefly, lipids were used to displace ANS bound to rL-FABP to assess how 4-HNE modification affects affinity towards more biologic ligands. Lipid stocks were diluted in absolute ethanol (10 mM, 5 mM, 1 mM, 0.1 mM) and prepared in a nitrogen gas chamber. Using conditions similar to ANS binding, increasing concentrations of FAs [stearate (SA), oleate (OA), and LA] were titrated into a pre-equilibrated solution containing 45 µM ANS, 1 µM r-LFABP, and 50 mM tricine (pH 8.0). The sample was mixed for an additional 30 seconds and the excitation and emission of ANS was measured as mentioned, where the loss of fluorescence indicates affinity towards the lipid.
(§5) For the displacement assays, one-site inhibition analysis of the data was utilized based on the fit of the data (instead of a two-site inhibition analysis) (eq2). Fluorescence counts that are inhibitable are denoted as bi, and residual counts are br. The concentration of OA, SA or LA is denoted as [FA]. The Hill constant, η, indicates the cooperativity between the binding sites, where if η >1 the sites are positively cooperative, η <1 the site are negatively cooperative, and if η = 1 the sites are non-cooperative. [drawing 2] (2)

[9] = target: T5, rL-FABP; test: Displacement of ANS by fatty acids, WT rL-FABP; format: binding; conditions: for bi (counts inhibitable) / Ki: 45 µM ANS, 1 µM protein; for Ki: read-out: ki (inhibition constant)
Description: as §4, §5

[10] = rL-FABP treated with 5X 4-HNE + PG
[11] = rL-FABP treated with 1X 4-HNE (53.93 µM)
[12] = rL-FABP treated with 5X 4-HNE (245.09 µM)

- Tm of apo rL-FABP ([1]; 0.1X 4-HNE (4.93 µM)): 70.09±0.004 °C
- Tm of apo rL-FABP ([1]; 1X 4-HNE (49.26 µM)): 68.56±0.05 °C
- Tm of apo rL-FABP ([1]; 5X 4-HNE (246.31 µM)): 66.38±0.15 °C
- ΔTm of apo L-FABP by 4-HNE adduction ([1]; P<0.01): 5.44 °C
- Tm of holo rL-FABP ([2]; 0.1X 4-HNE (4.93 µM)): 83.84±0.39 °C
- Tm of holo rL-FABP ([2]; 1X 4-HNE (49.26 µM)): 84.89±0.48 °C
- Tm of holo rL-FABP ([2]; 5X 4-HNE (246.31 µM)): 83.698±0.53 °C
- reduction of capacity for ligand when adducted by 4-HNE ([4]; saturation analyses): approximately 50%
Structure (SMILES): CCCCCC(O)C=CC=O (stereo not drawn) [4-HNE, 4-hydroxy-2-nonenal]
- half-life [3]: ~2 min

Structure (SMILES): O=S(=O)(O)c1cccc2cccc(Nc3ccccc3)c12 [ANS, 1-Anilinonaphthalene-8-Sulfonic Acid]
- Kd [5]: 0.165 ± 0.111 µM
- Bmax1 ([5]; rL-FABP treated with PG 10 mM): 83,200±23,200 AFU
- Bmax2 ([5]; rL-FABP treated with PG 10 mM): 446,400±17,500 AFU
- Kd ([5]; read-out: Kd2, rL-FABP treated with PG 10 mM): 7.18 ± 0.121 µM
- Kd [6]: 0.347 ± 0.153 µM
- Bmax1 ([6]; native rL-FABP (0X 4-HNE), 1 µM protein, primary site): 540,200±142,500 AFU
- Bmax2 ([6]; native rL-FABP, secondary site): 500,500±116,800 AFU
- Kd ([6]; read-out: Kd2, native rL-FABP, secondary site): 6.17 ± 1.44 µM
- Kd [7]: 0.326 ± 0.127 µM
- Bmax1 [7, 10]: 168,200±22,900 AFU
- Bmax2 [7, 10]: 512,200±64,500 AFU
- Kd ([7]; read-out: Kd2, rL-FABP treated with 5X 4-HNE + PG): 27.9 ± 10.7 µM
- decrease in the affinity for ANS, secondary binding site ([4]; 5X 4-HNE versus native (kd2)): ~6 fold
- Kd ([4]; Kd1, rL-FABP treated with 0.1X 4-HNE (5.93 µM)): 0.132 ± 0.074 µM
- Kd ([4]; Kd1, rL-FABP treated with 1X 4-HNE (53.93 µM)): 0.135 ± 0.074 µM
- Kd ([4]; Kd1, rL-FABP treated with 5X 4-HNE (245.09 µM)): 0.395 ± 0.101 µM
- Bmax1 ([4]; rL-FABP treated with 0.1X 4-HNE (5.93 µM)): 175,500±36,800 AFU
- Bmax1 [4, 11]: 123,000±28,900 AFU
- Bmax2 [4, 11]: 548,900±23,700 AFU
- Bmax1 [4, 12]: 238,100±21,700 AFU
- Bmax2 [4, 12]: 537,400±81,900 AFU
- Kd ([4]; read-out: Kd2, rL-FABP treated with 0.1X 4-HNE (5.93 µM)): 7.4 ± 1.07 µM
- Kd ([4]; read-out: Kd2, rL-FABP treated with 1X 4-HNE (53.93 µM)): 4.99 ± 0.71 µM
- Kd ([4]; read-out: Kd2, rL-FABP treated with 5X 4-HNE (245.09 µM)): 34.2 ± 13.9 µM

- bi (counts inhibitable) [8]: 449,500±11,400 AFU
- Ki [8]: 2.8 ± 0.3 µM
- br (counts residual) [8]: 96,300±9,200 AFU
- n (hill coefficient) [8]: 1.76±0.14
- reduction of maximal binding to the FA by 4-HNE [8]: 49%
- br (counts residual) [9]: 164,800±43,900 AFU
- n (hill coefficient) [9]: 1.38±0.26
- bi (counts inhibitable) [9]: 888,000±54 AFU
- Ki [9]: 1.56 ± 0.29 µM
Structure (SMILES): CCCCC/C=C\C/C=C\CCCCCCCC(=O)O [Linoleic Acid]

- bi (counts inhibitable) [8]: 457,600±26,400 AFU
- Ki [8]: 0.69 ± 0.097 µM
- br (counts residual) [8]: 63,500±19,200 AFU
- n (hill coefficient) [8]: 0.81±0.0999
- reduction of maximal binding to the FA by 4-HNE [8]: 32.7%
- br (counts residual) [9]: 171,600±19,800 AFU
- n (hill coefficient) [9]: 2.31±0.29
- bi (counts inhibitable) [9]: 680,200±26,500000 AFU
- Ki [9]: 5.88 ± 1.45 µM
Structure (SMILES): CCCCCCCC/C=C\CCCCCCCC(=O)O [Oleic Acid]
